Results taken from US20080125395A1, “COMPOSITIONS AND METHODS FOR THE TREATMENT OF SKIN” (priority 1999, published 2008).

Tested on: rosacea
Assay: topical treatment of rosacea in human subjects (case reports)
Type: in vivo
Conditions: long-term use by subjects with facial rosacea
Text: A second subject was a person who suffered from disfiguring rosacea on their face for 14 years. […] After failure of the cortisone treatment to provide adequate relief, the subject used an ascorbic acid, zinc sulfate and tyrosine formulation once a day. The ascorbic acid composition provided slight relief, but the subject's rosacea never cleared up adequately. The subject then used the same ascorbic acid formulation to which 20% (w/v) glucosamine had been added.
FIG. 4 provides an exemplary depiction of the cosmetic and therapeutic benefits of the present invention. A subject used an embodiment of the present invention containing glucosamine for one week. Before using the embodiment (panel A), the subject suffered from disfiguring rosacea blemishes on their face. […] In one week, the size of blemishes has decreased and the intensity of the rosacea has abated, although some scarring (resulting from years of severe inflammatory lesions that had not responded to previous treatments) remains.

SMILES: C[C@]12CCC(=O)C=C1CC[C@@H]1[C@@H]2[C@@H](O)C[C@@]2(C)[C@H]1CC[C@]2(O)C(=O)CO [hydrocortisone]
- control of rosacea inflammation: partially control
